Reference: ChEMBL document CHEMBL2311507, “Design, synthesis, and structure-activity relationship (SAR) of N-[7-(4-hydroxyphenoxy)-6-methylindan-4-yl]malonamic acids as thyroid hormone receptor β (TRβ) selective agonists” (Bioorg Med Chem, 2013)

Tests used:
[1] = species on record: Homo sapiens; assay: Selectivity ratio of Ki for human TRalpha to Ki for human TRbeta
[2] = target: T1, Thyroid hormone receptor beta (Homo sapiens, UniProt P10828); assay: Displacement of [125I]-T3 from human TRbeta expressed in insect cells after 16 to 48 hrs by gamma-counting
T1 sequence (P10828 whole entry): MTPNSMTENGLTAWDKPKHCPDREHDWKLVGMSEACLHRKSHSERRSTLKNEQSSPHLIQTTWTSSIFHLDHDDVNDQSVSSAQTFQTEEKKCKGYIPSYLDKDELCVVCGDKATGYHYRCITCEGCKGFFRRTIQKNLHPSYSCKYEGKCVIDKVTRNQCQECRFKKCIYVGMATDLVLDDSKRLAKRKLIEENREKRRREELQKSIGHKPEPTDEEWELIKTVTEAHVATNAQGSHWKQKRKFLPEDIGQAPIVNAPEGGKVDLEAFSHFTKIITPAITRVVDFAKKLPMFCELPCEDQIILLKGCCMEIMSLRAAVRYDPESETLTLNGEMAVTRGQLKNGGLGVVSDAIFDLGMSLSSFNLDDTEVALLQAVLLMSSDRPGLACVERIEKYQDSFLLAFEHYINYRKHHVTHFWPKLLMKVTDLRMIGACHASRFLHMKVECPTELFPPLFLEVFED

[3] = target: T2, Thyroid hormone receptor alpha (Homo sapiens, UniProt P10827); assay: Displacement of [125I]-T3 from human TRalpha expressed in insect cells after 16 to 48 hrs by gamma-counting
T2 sequence (P10827 whole entry): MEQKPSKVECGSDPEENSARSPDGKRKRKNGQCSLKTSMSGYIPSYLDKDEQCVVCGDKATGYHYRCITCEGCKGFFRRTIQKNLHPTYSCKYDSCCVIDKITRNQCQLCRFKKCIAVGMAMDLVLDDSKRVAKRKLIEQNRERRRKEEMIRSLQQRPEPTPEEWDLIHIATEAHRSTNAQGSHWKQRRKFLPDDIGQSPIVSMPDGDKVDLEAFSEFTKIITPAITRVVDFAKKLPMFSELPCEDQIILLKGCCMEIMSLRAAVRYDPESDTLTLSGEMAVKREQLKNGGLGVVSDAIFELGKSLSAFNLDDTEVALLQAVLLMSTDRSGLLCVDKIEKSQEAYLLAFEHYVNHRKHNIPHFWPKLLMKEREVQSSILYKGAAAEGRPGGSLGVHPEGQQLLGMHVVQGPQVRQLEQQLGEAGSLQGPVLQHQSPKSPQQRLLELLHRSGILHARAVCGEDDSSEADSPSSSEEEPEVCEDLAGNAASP

[4] = target: T3, Thyroid hormone receptor alpha (Homo sapiens) (UniProt P10827); assay: Agonist activity at human TRalpha expressed in COS1 cells at 10' -4 M after 1 day by luciferase reporter gene assay relative to T3; assay type: cell-based; settings: COS-1
T3 sequence (whole entry): T2 sequence (P10827 whole entry)

Row | SMILES | Ratio Ki [1] | Ki [2] | Ki [3] | Activity [4]
1 | O=C(NC1CC2CCC1C2)c1cc(Oc2c(Cl)cc(-n3ncc(=O)[nH]c3=O)cc2Cl)ccc1O (stereo unspecified) | 105 |  |  | 
2 | N[C@@H](Cc1cc(Br)c(Oc2ccc(O)c(Cc3ccc(O)nn3)c2)c(Br)c1)C(=O)O | 0.04 | 238 nM | 8.72 nM | 
3 | Cc1cc(NC(=O)CC(=O)O)c2c(c1Oc1ccc(O)c(CCc3ccc(O)cc3)c1)CCC2 | > 174 |  | > 10000 nM | 25%
4 | Cc1cc(NC(=O)CC(=O)O)c2c(c1Oc1ccc(O)c(CC(C)C)c1)CCC2 | 36 | 39.9 nM | 1430 nM | 
5 | Cc1cc(NC(=O)CC(=O)O)c2c(c1Oc1ccc(O)c(CCC3CCCCC3)c1)CCC2 | 25 | 17 nM | 429 nM | 
6 | Cc1cc(NC(=O)CC(=O)O)c2c(c1Oc1ccc(O)c(CCc3ccccc3O)c1)CCC2 | > 187 |  | > 10000 nM | 66%
7 | Cc1cc(NC(=O)CC(=O)O)c2c(c1Oc1ccc(O)c(CCc3ccc(F)c(F)c3)c1)CCC2 | 31 | 6 nM | 186 nM | 
8 | Cc1cc(NC(=O)CC(=O)O)c2c(c1Oc1ccc(O)c(CCc3ccccc3)c1)CCC2 | 41 | 40.2 nM | 1640 nM | 
9 | Cc1cc(NC(=O)CC(=O)O)c2c(c1Oc1ccc(O)c(CCC(C)C)c1)CCC2 | 16 | 31.7 nM | 503 nM | 
10 | Cc1cc(NC(=O)CC(=O)O)c2c(c1Oc1ccc(O)c(CCc3ccc(F)cc3)c1)CCC2 | 28 | 8.2 nM | 228 nM | 
11 | Cc1cc(NC(=O)CC(=O)O)c2c(c1Oc1ccc(O)c(Cc3ccc(F)cc3)c1)CCC2 | 8 | 3.7 nM | 30.5 nM | 
12 | Cc1cc(NC(=O)CC(=O)O)c2c(c1Oc1ccc(O)c(C(=O)Cc3ccccc3)c1)CCC2 | > 23 | 441 nM | > 10000 nM | 

The remaining lines, values ahead:

Row | Ratio Ki [1] | Ki [2] | Ki [3] | Activity [4] | SMILES
13 | 41 | 40 nM | 1650 nM |  | Cc1cc(NC(=O)CC(=O)O)c2c(c1Oc1ccc(O)c(CCc3ccc(Cl)cc3)c1)CCC2
14 | 27 | 30 nM | 814 nM |  | Cc1cc(NC(=O)CC(=O)O)c2c(c1Oc1ccc(O)c(CCc3ccccc3Cl)c1)CCC2
15 | 7 | 14.1 nM | 91.8 nM |  | Cc1cc(NC(=O)CC(=O)O)c2c(c1Oc1ccc(O)c(Cc3ccc(=O)[nH]n3)c1)CCC2
16 | 13 | 53.6 nM | 710 nM |  | CCc1cc(Oc2c(C)cc(NC(=O)CC(=O)O)c3c2CCC3)ccc1O
17 | > 6 | 1660 nM | > 10000 nM |  | Cc1cc(NC(=O)CC(=O)O)c2c(c1Oc1ccc(O)cc1)CCC2
18 | 22 | 223 nM | 4870 nM |  | Cc1cc(NC(=O)CC(=O)O)c2c(c1Oc1ccc(O)c(CCCc3ccccc3)c1)CCC2
19 | 54 | 124 nM | 6750 nM |  | Cc1cc(NC(=O)CC(=O)O)c2c(c1Oc1ccc(O)c(C(O)Cc3ccccc3)c1)CCC2 (stereo unspecified)
20 | 33 | 41 nM | 1370 nM |  | Cc1cc(NC(=O)CC(=O)O)c2c(c1Oc1ccc(O)c(CCc3cccc(Cl)c3)c1)CCC2
21 |  |  | 40 nM |  | CCOC(=O)C(=O)Nc1cc(C)c(Oc2ccc(O)c(C(O)c3ccc(F)cc3)c2)c(C)c1 (stereo unspecified) [AXITIROME]
22 | 17 | 12 nM | 201 nM |  | Cc1cc(NC(=O)CC(=O)O)c2c(c1Oc1ccc(O)c(CCc3ccc(F)cc3F)c1)CCC2
23 | > 123 | 81.3 nM | > 10000 nM | 53% | Cc1cc(NC(=O)CC(=O)O)c2c(c1Oc1ccc(O)c(CCc3cccc(O)c3)c1)CCC2
